Results on 16 molecules are retold here after patent publication US10053462B2, “P2X7 modulators” (Jansssen Pharmaceutica NV, priority 2013, dated 2018).

For this test, the target named is P2X7 (Homo sapiens (Human), UniProt Q99572). Description: P2X7 antagonism in human peripheral blood mononuclear cells (PBMCs), IL-1β release. It is filed as cell-based. The note with it: LPS 30 ng/ml + Bz-ATP 0.5 mM; for remaining activity at 10 µM: read-out: PBMC 10 μM (% control); for PBMC 10 μM (% control): Table 1, 10 μM compound. As for the experimental part:
P2X7 Antagonism in Human Peripheral Blood Mononuclear Cells (PBMCs) and Human Whole Blood.
Human blood was collected using a blood donor program. PBMCs were isolated from blood using a Ficoll density gradient technique. Briefly, blood was laid on Ficoll solution and centrifuged at RT for 20 minutes at 2000 rpm. The buffy layer (between red blood cells and plasma) was carefully collected by aspiration, washed with PBS and centrifuged again at 1500 rpm for 15 minutes. The resulting cell pellet was washed and plated on 96 well-plates for experiments. For the Human Whole Blood experiments, 150 μl of human blood was platted on 96 well-plates. Lipopolysaccharide (LPS) (30 ng/ml) was added to each well and incubated for 1 hour. Test compounds were then added and incubated for 30 minutes. The P2X7 agonist, 2′(3′)-O-(4-benzoylbenzoyl) adenosine 5′-triphosphate (Bz-ATP) was then added at a final concentration of 0.5 mM (PBMC) or 1 mM (blood). Cells were incubated for an additional 1.5 hours. At that point, supernatant was collected and stored for IL-1β assay using manufacturer's protocol for enzyme-linked immunosorbent assay (ELISA). Data was expressed as percent control, where control is defined as the difference in IL-1β release in LPS+Bz-ATP samples and LPS only samples. Data was plotted as response (% control) versus concentration to generate IC50 values. […] Data are analyzed and graphed on Graphpad Prism 5. For analysis, each concentration point is averaged from triplicate values and the averaged values are plotted on Graphpad Prism.

Where [1] appears, read: P2X7, Table 2 (additional runs), 10 μM compound.

Molecules are shown by their SMILES. Read-outs that look alike come from different tables or passages of the source.

P2X7, sequence (Q99572 whole entry): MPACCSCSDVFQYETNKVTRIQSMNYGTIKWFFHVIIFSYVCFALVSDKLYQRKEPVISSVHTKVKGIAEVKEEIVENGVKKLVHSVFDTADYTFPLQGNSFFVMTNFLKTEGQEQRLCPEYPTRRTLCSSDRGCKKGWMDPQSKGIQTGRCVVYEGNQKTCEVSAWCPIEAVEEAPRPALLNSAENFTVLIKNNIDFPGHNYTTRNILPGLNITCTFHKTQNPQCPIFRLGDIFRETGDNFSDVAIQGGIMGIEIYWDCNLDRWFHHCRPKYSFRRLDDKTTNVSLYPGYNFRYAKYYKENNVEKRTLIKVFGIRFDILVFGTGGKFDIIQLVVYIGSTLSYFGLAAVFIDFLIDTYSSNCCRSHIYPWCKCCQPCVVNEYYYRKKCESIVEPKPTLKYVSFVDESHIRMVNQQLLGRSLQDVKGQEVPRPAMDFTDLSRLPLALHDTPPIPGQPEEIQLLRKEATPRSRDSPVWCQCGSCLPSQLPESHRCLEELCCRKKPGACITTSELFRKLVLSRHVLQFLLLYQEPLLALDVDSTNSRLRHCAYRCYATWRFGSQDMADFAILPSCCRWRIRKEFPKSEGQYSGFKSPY

As to `O=C(c1ccc(F)c(Cl)c1Cl)N1[C@@H]2CCC[C@H]1c1nnc(-c3ccccn3)n1C2` (stereo in doubt) [Example 203, (6R,10S)-11-[(2,3-Dichloro-4-fluorophenyl)carbonyl]-3-pyridin-2-yl-5,6,7,8,9,10-hexahydro-6,10-epimino[1,2,4]triazolo[4,3-a]azocine], under setting [1], the remaining activity at 10 µM is -5%. `O=C(c1cccc(C(F)(F)F)c1Cl)N1[C@@H]2CCC[C@H]1c1nnc(-c3ncc(F)cn3)n1C2` (stereo in doubt) [Example 18, (6R*,10S*)-11-{[2-Chloro-3-(trifluoromethyl)phenyl]carbonyl}-3-(5-fluoropyrimidin-2-yl)-5,6,7,8,9,10-hexahydro-6,10-epimino[1,2,4]triazolo[4,3-a]azocine]: the remaining activity at 10 µM is, setting by setting: (P2X7, Table 1, 10 μM compound) -9%; under setting [1], -9%. As to `O=C(c1cccc(C(F)(F)F)c1Cl)N1[C@@H]2CCC[C@H]1c1nnc(-c3cscn3)n1C2` (stereo in doubt) [Example 9, (6R*,10S*)-11-{[2-Chloro-3-(trifluoromethyl)phenyl]carbonyl}-3-(1,3-thiazol-4-yl)-5,6,7,8,9,10-hexahydro-6,10-epimino[1,2,4]triazolo[4,3-a]azocine], the remaining activity at 10 µM (P2X7, Table 1, 10 μM compound) is 7.3% and the remaining activity at 10 µM under setting [1] came out at 7.3%.

For `Cc1c(C(=O)N2[C@H]3CC[C@@H]2c2nnc(-c4cscn4)n2C3)cccc1C(F)(F)F` [Example 53, (6S,9R)-10-{[2-Methyl-3-(trifluoromethyl)phenyl]carbonyl}-3-(1,3-thiazol-4-yl)-6,7,8,9-tetrahydro-5H-6,9-epimino[1,2,4]triazolo[4,3-a]azepine], the “PBMC 10 μM (% control)” value was 4.0 % control. Moreover, under setting [1], the remaining activity at 10 µM was 4%. With `O=C(c1cccc(C(F)(F)F)c1Cl)N1[C@H]2CCC[C@@H]1c1nnc(-c3cccnc3)n1C2` (stereo in doubt) [Example 14, (6S*,10R*)-11-{[2-Chloro-3-(trifluoromethyl)phenyl]carbonyl}-3-pyridin-3-yl-5,6,7,8,9,10-hexahydro-6,10-epimino[1,2,4]triazolo[4,3-a]azocine], the remaining activity at 10 µM is 2.4% (P2X7, Table 1, 10 μM compound) and 2.4% under setting [1]. With `O=C(c1cccc(C(F)(F)F)c1Cl)N1[C@H]2CC[C@@H]1c1nnc(-c3ncccn3)n1C2` [Example 46, (6S,9R)-10-{[2-Chloro-3-(trifluoromethyl)phenyl]carbonyl}-3-pyrimidin-2-yl-6,7,8,9-tetrahydro-5H-6,9-epimino[1,2,4]triazolo[4,3-a]azepine], the “PBMC 10 μM (% control)” value is 10.0 % control. Moreover, the remaining activity at 10 µM under setting [1] came out at 10%. On to `O=C(c1ccc(F)c(C(F)(F)F)c1Cl)N1[C@@H]2CCC[C@H]1c1nnc(-c3ccccn3)n1C2` (stereo in doubt) [Example 200, (6R,10S)-11-{[2-Chloro-4-fluoro-3-(trifluoromethyl)phenyl]carbonyl}-3-pyridin-2-yl-5,6,7,8,9,10-hexahydro-6,10-epimino[1,2,4]triazolo[4,3-a]azocine], for which, under setting [1], the remaining activity at 10 µM was determined as 7.7%. In the case of `O=C(c1ccc(Cl)cc1Cl)N1[C@@H]2CCC[C@H]1c1nnc(-c3ncc(F)cn3)n1C2` (stereo in doubt) [Example 21, (6R*,10S*)-11-[(2,4-Dichlorophenyl)carbonyl]-3-(5-fluoropyrimidin-2-yl)-5,6,7,8,9,10-hexahydro-6,10-epimino[1,2,4]triazolo[4,3-a]azocine], the remaining activity at 10 µM was -2.1% (P2X7, Table 1, 10 μM compound) and -2.1% under setting [1].

For `O=C(c1ccnc(C(F)(F)F)c1Cl)N1[C@@H]2CCC[C@H]1c1nnc(-c3ccccn3)n1C2` (stereo in doubt) [Example 199, (6R,10S)-11-{[3-Chloro-2-(trifluoromethyl)pyridin-4-yl]carbonyl}-3-pyridin-2-yl-5,6,7,8,9,10-hexahydro-6,10-epimino[1,2,4]triazolo[4,3-a]azocine], the remaining activity at 10 µM under setting [1] is -3.2%.

As to `Cc1cccc(-c2nnc3n2C[C@@H]2CCC[C@H]3N2C(=O)c2cccc(C(F)(F)F)c2Cl)n1` (stereo in doubt) [Example 23, (6S*,10R*)-11-{[2-Chloro-3-(trifluoromethyl)phenyl]carbonyl}-3-(6-methylpyridin-2-yl)-5,6,7,8,9,10-hexahydro-6,10-epimino[1,2,4]triazolo[4,3-a]azocine], the remaining activity at 10 µM runs as follows: (P2X7, Table 1, 10 μM compound) 8%; under setting [1], 8%.

For the molecule `Cc1cccc(-c2nnc3n2C[C@H]2CCC[C@@H]3N2C(=O)c2cccc(C(F)(F)F)c2Cl)n1` (stereo in doubt) [Example 24, (6R*,10S*)-11-{[2-Chloro-3-(trifluoromethyl)phenyl]carbonyl}-3-(6-methylpyridin-2-yl)-5,6,7,8,9,10-hexahydro-6,10-epimino[1,2,4]triazolo[4,3-a]azocine], the remaining activity at 10 µM by setting is: (P2X7, Table 1, 10 μM compound) 32.7%; under setting [1], 32.7%.

For the molecule `Cc1ccnc(-c2nnc3n2C[C@H]2CCC[C@@H]3N2C(=O)c2cccc(C(F)(F)F)c2Cl)c1` (stereo in doubt) [Example 194, (6R,10S)-11-{[2-Chloro-3-(trifluoromethyl)phenyl]carbonyl}-3-(4-methylpyridin-2-yl)-5,6,7,8,9,10-hexahydro-6,10-epimino[1,2,4]triazolo[4,3-a]azocine], the remaining activity at 10 µM under setting [1] is -13%. `COc1ccnc(-c2nnc3n2C[C@H]2CCC[C@@H]3N2C(=O)c2cccc(C(F)(F)F)c2Cl)c1` (stereo in doubt) [Example 27, (6R*,10S*)-11-{[2-Chloro-3-(trifluoromethyl)phenyl]carbonyl}-3-(4-methoxypyridin-2-yl)-5,6,7,8,9,10-hexahydro-6,10-epimino[1,2,4]triazolo[4,3-a]azocine]: the remaining activity at 10 µM runs as follows: (P2X7, Table 1, 10 μM compound) 4.8%; under setting [1], 4.8%. Regarding `O=C(c1cccc(C(F)(F)F)c1Cl)N1[C@H]2CCC[C@@H]1c1nnc(-c3ccc(F)cn3)n1C2` (stereo in doubt) [Example 11, (6S*,10R*)-11-{[2-Chloro-3-(trifluoromethyl)phenyl]carbonyl}-3-(5-fluoropyridin-2-yl)-5,6,7,8,9,10-hexahydro-6,10-epimino[1,2,4]triazolo[4,3-a]azocine], the remaining activity at 10 µM was 38.9% (P2X7, Table 1, 10 μM compound) and 38.9% under setting [1]. On to `O=C(c1cccc(C(F)(F)F)c1Cl)N1[C@H]2CC[C@@H]1c1nnc(-c3ccccn3)n1C2` [Example 41, (6S,9R)-10-{[2-Chloro-3-(trifluoromethyl)phenyl]carbonyl}-3-pyridin-2-yl-6,7,8,9-tetrahydro-5H-6,9-epimino[1,2,4]triazolo[4,3-a]azepine], for which the “PBMC 10 μM (% control)” value is −20.0 % control. Also, the remaining activity at 10 µM under setting [1] was -20%.

With `O=C(c1cccc(C(F)(F)F)c1Cl)N1[C@@H]2CCC[C@H]1c1nnc(-c3cc(C(F)(F)F)ccn3)n1C2` (stereo in doubt) [Example 196, (6R,10S)-11-{[2-Chloro-3-(trifluoromethyl)phenyl]carbonyl}-3-[4-(trifluoromethyl)pyridin-2-yl]-5,6,7,8,9,10-hexahydro-6,10-epimino[1,2,4]triazolo[4,3-a]azocine], the remaining activity at 10 µM under setting [1] is -0.2%.
